Measured values published in patent EP0619313A1, “LITHIUM SALT OF 2-O-ALK[…]” (TSUMURA & CO., priority 1992, dated 1994).

Key:
Jcl:Wistar rats = experiment: Toxicity after oral or intravenous administration, rats; assay type: in vivo
Procedure: (§1) The test compound was administered orally or intravenously to Jcl:ICR mice and Jcl:Wistar rats (two mice or rats (male and female) per group). 2-O-octadecylascorbic acid lithium obtained in Example 1 as the test compound was suspended in 0.5% methyl cellulose in the case of oral administration and dissolved in physiological saline in the case of intravenous administration.

[1] = as above; assay type: in vivo; conditions: rat, in vivo, read-out: LD₅₀
Procedure: as §1

Jcl:ICR mice = experiment: Toxicity after oral or intravenous administration, mice; assay type: in vivo
Procedure: as §1

[2] = as above; assay type: in vivo; conditions: mouse, in vivo, read-out: LD₅₀
Procedure: as §1

[3] = test system: lipid peroxidation enzyme; experiment: Inhibitory activity against lipid peroxidation enzyme (rat liver microsome, carbon tetrachloride, thiobarbituric acid); assay type: biochemical; conditions: 300 µM; carbon tetrachloride 20 mM; 37°C for 12 minutes
Procedure: Rat liver microsome (2 mg), which is a NADPH generating system, the test compound (2-O-octadecylascorbic acid lithium obtained Example 1)(300 µM) and carbon tetrachloride (20 mM) were reacted at 37°C for 12 minutes. A mixed solution of thiobarbituric acid and trichloroacetic acid was added to the solution. Absorbance was measured at 535 nm.

[4] = molecular target: T1, Phospholipase A₂ derived from pig pancreas (Sus scrofa, UniProt P00592); experiment: Inhibitory activity against phospholipase A₂; assay type: biochemical; conditions: pH 9, read-out: enzymatic activity of the phospholipase inhibited
T1 construct: Phospholipase A₂ derived from pig pancreas; from tissue; host or cells: pig pancreas
T1 sequence (P00592 23-146): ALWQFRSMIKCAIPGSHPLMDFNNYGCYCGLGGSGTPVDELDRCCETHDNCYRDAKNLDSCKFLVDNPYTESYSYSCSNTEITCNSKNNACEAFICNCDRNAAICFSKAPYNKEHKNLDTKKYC
Procedure: Phospholipase A₂ derived from pig pancreas was reacted for 10 minutes in 0.1M glycine-NaOH buffer (pH 9) containing a test compound (2-O-octadecylascorbic acid lithium obtained in Example 1)(300 µM) and labeled phosphatidylcholine. Thereafter, Ca⁺⁺ (2.5 mM) was added and the reaction was continued for additional 5 minutes. The reaction was stopped by adding 0.2M EDTA solution to the reaction mixture. The mixture was extracted with acidic […]. Scintillation of the […] layer was measured.

[5] = test system: myocardial infarction focus; experiment: Inhibition of development of myocardial infarction focus after coronary obstruction-reperfusion in rats; assay type: in vivo, Male Wistar-rats; conditions: 1 mg/kg intravenous
Procedure: Male Wistar-rats (11 to 12 weeks old) were used and anethesized with pentobarbital-Na, and medianus thoracotomy was carried out under artificial respiration. After incising the pericardium membrane, the heart was exposed. The base of the left coronary artery together with cardiac muscle was threaded with a sutural needle and thread (marketed by Lederle (Japan), Ltd., 7-0 silk), which were passed through a polyethylene tube, and the thread was pulled. Thus, coronary artery was obstructed. One hour later, the thread was loosed to make blood to flow again. Thirty to sixty minutes after reperfusion, the thorax was closed and the rat was kept under arousal.
After 24 hours, the rats were anesthetized again, and the heart was removed quickly and soaked in ice-cooled physiological saline. The coronary artery was obstructed again to know a dangerous region. Evans' Blue (1%) was perfused through a polyethylene tube inserted into the aorta retrogradely, and normal region was separated from the dangerous region. Thereafter, the left ventricle was divided into 6 parts parallel to the vertical axis and dyed with triphenyl tetrazolium chloride (TTC)(1%) at 37°C for 10 minutes except necrotic cells. The infarction focus was weighed. The test drug (2-O-octadecylascorbic acid obtained in Example 1) was dissolved in physiological saline, and administered intravenously 30 minutes after the coronary obstruction.

[6] = molecular target: T2, GST-cdc25Hu2 fused protein (Homo sapiens, UniProt P30305); experiment: GST-cdc25Hu2 (protein phosphatase) inhibitory activity; assay type: biochemical; conditions: 37°C for 60 minutes, read-out: cdc25 activity inhibited
T2 sequence (P30305 1-580): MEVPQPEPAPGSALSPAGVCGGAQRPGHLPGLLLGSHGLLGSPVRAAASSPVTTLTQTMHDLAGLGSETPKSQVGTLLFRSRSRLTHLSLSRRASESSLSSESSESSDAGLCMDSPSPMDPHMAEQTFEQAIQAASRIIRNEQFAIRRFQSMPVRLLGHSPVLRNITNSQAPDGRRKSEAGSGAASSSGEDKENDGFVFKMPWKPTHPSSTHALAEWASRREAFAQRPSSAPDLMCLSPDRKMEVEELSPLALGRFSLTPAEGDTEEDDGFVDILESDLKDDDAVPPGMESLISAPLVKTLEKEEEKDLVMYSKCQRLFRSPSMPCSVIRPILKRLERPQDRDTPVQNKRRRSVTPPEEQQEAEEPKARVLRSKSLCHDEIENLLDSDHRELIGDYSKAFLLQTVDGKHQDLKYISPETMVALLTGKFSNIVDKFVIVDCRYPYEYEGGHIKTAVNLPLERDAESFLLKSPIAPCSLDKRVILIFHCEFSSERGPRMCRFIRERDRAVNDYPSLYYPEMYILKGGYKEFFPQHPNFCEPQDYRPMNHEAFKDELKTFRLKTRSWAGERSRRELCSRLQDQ
Procedure: A test compound (2-O-octadecylascorbic acid lithium obtained in Example 1)(80 µM) was added to a reaction mixture containing GST-cdc25Hu2 fused protein (60 µg/ml), p-nitrophenylphosphate (manufactured by Wako Pure Chemical Industries, Ltd.)(10 mM), bovine serum albumin (manufactured by Sigma, U.S.A.)(100 µg/ml), DDT (dithiothreitol) (manufactured by Wako Pure Chemical Industries, Ltd.)(10 mM) and HEPES (2-hydroxyethylpiperazine-N'-2-ethane sulfate)(25 mM, pH 8.0). The mixture was subjected to reaction at 37°C for 60 minutes. Then, absorbance at 405 nm was measured, and the inhibitory activity was evaluated based on the decrease of the absorbance.

[7] = test system: rabbit defibrinated blood; experiment: Hemolysis test with rabbit defibrinated blood; assay type: cell-based; conditions: not more than 1 µg/ml in physiological saline; 37°C for 1 hour; macroscopic observation of the supernatant
Procedure: A physiological saline solution containing 2-O-octadecylascorbic acid lithium obtained in Example 1 below was warmed to 37°C, put in a Spitz roll, provided with rabbit defibrinated blood (Note)(0.1 ml) previously warmed to 37°C, shaken for mixing gently and warmed at 37°C for 1 hour. Then, this liquid was subjected to centrifugation. Macroscopic observation was made as to whether the supernatant had hemolysis.
Blood (about 20 ml) was drawn from rabbits, put in a flask containing about twenty glass beads of diameter of 8 mm, shaken for mixing gently for about 5 minutes and filtered through gauze. This preparation was carried out before use.

Water-solubility = conditions: at 28°C
[8] = intravenous administration, dissolved in physiological saline
[9] = oral administration, suspended in 0.5% methyl cellulose

CCCCCCCCCCCCCCCCCCOC1=C(O)[C@@H]([C@@H](O)CO)OC1=O.[Li] [2-O-octadecylascorbic acid lithium]
Abnormal findings in the autopsy of the survivors (Jcl:Wistar rats): not observed
autopsy of the dead animals (Jcl:Wistar rats; intravenous administration): Pulmonary congestion was observed
LD50 [1, 8]: 25 to 50 mg/kg
LD50 [1, 9]: ≥ 2000 mg/kg
Abnormal findings in the autopsy of the survivors (Jcl:ICR mice): not observed
autopsy of the dead animals (Jcl:ICR mice; intravenous administration): Pulmonary congestion was observed
LD50 [2, 8]: 25 to 50 mg/kg
LD50 [2, 9]: ≥ 2000 mg/kg
inhibitory ratio of the enzymatic activity [3]: 75%
inhibition at 300 µM [4]: 59%
infarction focus per the dangerous region (IS/AR) ([5]; 30 minutes after the coronary obstruction, N=7, control 60.0±1.8%): 40.5±4.6%
inhibition in comparison with the control group ([5]; P<0.001): 32.7%
dangerous region per left ventricle (AR/LV) ([5]; compared with the physiological saline group): no significant difference
inhibition at 80 µM [6]: 93.6%
hemolysis [7]: not observed
water-solubility (Water-solubility): 1 g/83 ml (water)
